{
  "source": "paper PMC5615050",
  "about": "(Scientific Reports, 2017)",
  "biological_target": "Bac-NA^H274Y H1N1 (Influenza A virus, UniProt P03470, H259Y)",
  "experiment": "biochemical",
  "data": [
    {"smiles": "CC12CCC(O)CC1CCC1C2CC(O)C2(C)C(C3=CC(=O)OC3)CCC12O", "note": "(stereo not drawn) [BPR1P0007S0]", "values": [
      {"measurement": "IC50", "value": "> 40", "unit": "µM"}
    ]},
    {"smiles": "CC1OC(OC2CC(O)C3(CO)C4C(O)CC5(C)C(C6COC(O)C6)CCC5(O)C4CCC3(O)C2)C(O)C(O)C1O", "note": "(stereo not drawn) [BPR1P0003S0]", "values": [
      {"measurement": "IC50", "value": "> 40", "unit": "µM"}
    ]},
    {"smiles": "CC12CCC(O)CC1CCC1C2CCC2(C)C(C3=CC(=O)OC3)CCC12O", "note": "(stereo not drawn) [BPR1P0008S0]", "values": [
      {"measurement": "IC50", "value": "> 40", "unit": "µM"}
    ]}
  ]
}
